Target: T1, HCV NS5B (Hepatitis C virus genotype 1b, UniProt Q9WMX2)
T1 construct: The protein was expressed with an 18 amino acid C-terminal truncation to enhance the solubility; made in house; host or cells: E. coli BL21(DE3)
Assay: HCV NS5B RdRp enzyme assay
Format: biochemical
Conditions: HCV NS5B RdRp genotype 1b
Experimental: HCV NS5B RdRp cloning, expression, and purification. The cDNA encoding the NS5B protein of HCV, genotype 1b, was cloned into the pET21a expression vector. The protein was expressed with an 18 amino acid C-terminal truncation to enhance the solubility. The E. coli competent cell line BL21(DE3) was used for expression of the protein. Cultures were grown at 37° C. for ˜4 hours until the cultures reached an optical density of 2.0 at 600 nm. The cultures were cooled to 20° C. and induced with 1 mM IPTG. Fresh ampicillin was added to a final concentration of 50 μg/ml and the cells were grown overnight at 20° C.
Cell pellets (3L) were lysed for purification to yield 15-24 mgs of purified NS5B. The lysis buffer consisted of 20 mM Tris-HCl, pH 7.4, 500 mM NaCl, 0.5% triton X-100, 1 mM DTT, 1 mM EDTA, 20% glycerol, 0.5 mg/ml lysozyme, 10 mM MgCl2, 15 ug/ml deoxyribonuclease I, and Complete TM protease inhibitor tablets (Roche). After addition of the lysis buffer, frozen cell pellets were resuspended using a tissue homogenizer. To reduce the viscosity of the sample, aliquots of the lysate were sonicated on ice using a microtip attached to a Branson sonicator. The sonicated lysate was centrifuged at 100,000×g for 1 hr at 4° C. and filtered through a 0.2 μm filter unit (Corning).
The protein was purified using three sequential chromatography steps: Heparin sepharose CL-6B, polyU sepharose 4B, and Hitrap SP sepharose (Pharmacia). The chromatography buffers were identical to the lysis buffer but contained no lysozyme, deoxyribonuclease I, MgCl2 or protease inhibitor and the NaCl concentration of the buffer was adjusted according to the requirements for charging the protein onto the column. Each column was eluted with a NaCl gradient which varied in length from 5-50 column volumes depending on the column type. After the final chromatography step, the resulting purity of the enzyme is >90% based on SDS-PAGE analysis. The enzyme was aliquoted and stored at −80° C.
Standard HCV NS5B RdRp enzyme assay. HCV RdRp genotype 1b assays were run in a final volume of 60 μl in 96 well plates (Costar 3912). The assay buffer is composed of 20 mM Hepes, pH 7.5, 2.5 mM KCl, 2.5 mM MgCl2, 1 mM DTT, 1.6 U RNAse inhibitor (Promega N2515), 0.1 mg/ml BSA (Promega R3961), and 2% glycerol. All compounds were serially diluted (3-fold) in DMSO and diluted further in water such that the final concentration of DMSO in the assay was 2%. HCV RdRp genotype 1b enzyme was used at a final concentration of 28 nM. A polyA template was used at 6 nM, and a biotinylated oligo-dT12 primer was used at 180 nM final concentration. Template was obtained commercially (Amersham 27-4110). Biotinylated primer was prepared by Sigma Genosys. 3H-UTP was used at 0.6 μCi (0.29 μM total UTP). Reactions were initiated by the addition of enzyme, incubated at 30° C. for 60 min, and stopped by adding 25 μl of 50 mM EDTA containing SPA beads (4 μg/μl, Amersham RPNQ 0007). Plates were read on a Packard Top Count NXT after >1 hr incubation at room temperature.
Modified HCV NS5B RdRp enzyme assay. A modified enzyme assay was performed essentially as described for the standard enzyme assay except for the following: The biotinylated oligo dT12 primer was precaptured on streptavidin-coated SPA beads by mixing primer and beads in assay buffer and incubating at room temperature for one hour. Unbound primer was removed after centrifugation. The primer-bound beads were resuspended in 20 mM Hepes buffer, pH 7.5 and used in the assay at final concentrations of 20 nM primer and 0.67 μg/μl beads. Order of addition in the assay: enzyme (14 nM) was added to diluted compound followed by the addition of a mixture of template (0.2 nM), 3H-UTP (0.6 μCi, 0.29 μM), and primer-bound beads, to initiate the reaction; concentrations given are final. Reactions were allowed to proceed for 4 hours at 30° C.
IC50 values for compounds were determined using seven different [I]. […]

T1 sequence (Q9WMX2 2420-2992): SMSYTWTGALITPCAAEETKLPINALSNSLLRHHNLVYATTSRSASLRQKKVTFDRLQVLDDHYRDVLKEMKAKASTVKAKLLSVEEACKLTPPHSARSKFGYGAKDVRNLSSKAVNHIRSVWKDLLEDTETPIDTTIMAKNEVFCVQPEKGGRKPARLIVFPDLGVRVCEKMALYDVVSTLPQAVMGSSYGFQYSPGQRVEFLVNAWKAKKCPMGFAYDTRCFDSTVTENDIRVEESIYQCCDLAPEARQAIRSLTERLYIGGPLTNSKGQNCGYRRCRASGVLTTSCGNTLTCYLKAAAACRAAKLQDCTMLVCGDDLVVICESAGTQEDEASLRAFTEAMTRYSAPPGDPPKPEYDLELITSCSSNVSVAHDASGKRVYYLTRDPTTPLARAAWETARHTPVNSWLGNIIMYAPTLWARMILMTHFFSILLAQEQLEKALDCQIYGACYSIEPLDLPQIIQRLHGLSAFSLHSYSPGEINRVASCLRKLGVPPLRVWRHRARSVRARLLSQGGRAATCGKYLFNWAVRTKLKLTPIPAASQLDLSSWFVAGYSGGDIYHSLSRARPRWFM

`COc1ccc2c(c1)CC(C(=O)N1CC34CN(C)CC3(CN(C)C4)C1)Cn1c-2c(C2CCCCC2)c2ccc(C(=O)NS(=O)(=O)N(C)C)cc21` (stereo not shown) showed an IC50 (Table 1) of 1.9 to 500 nM.

`COc1ccc2c(c1)[C@@H]1C[C@]1(C(=O)N1CC34CN(C)CC3(CN(C)C4)C1)Cn1c-2c(C2CCCCC2)c2ccc(C(=O)NS(=O)(=O)C(C)C)cc21` (stereo partly shown) gave an IC50 (Table 1) of 1.9 to 500 nM.

Work on `CCN1CC23COCC2(C1)CN(C(=O)[C@]12C[C@H]1c1cc(OC)ccc1-c1c(C4CCCCC4)c4ccc(C(=O)NS(=O)(=O)C(C)C)cc4n1C2)C3` (stereo partly shown) yielded an IC50 (Table 1) of 1.9 to 500 nM.

Work on `C=C(C)S(=O)(=O)NC(=O)c1ccc2c(C3CCCCC3)c3n(c2c1)C[C@@]1(C(=O)N2CC45COCC4(CN(C)C5)C2)C[C@H]1c1cc(OC)ccc1-3` (stereo partly shown) yielded an IC50 (Table 1) of 1.9 to 500 nM.

`COc1ccc2c(c1)C=C(C(=O)N1CC34COCC3(C1)N(C(C)=O)C4)Cn1c-2c(C2CCCCC2)c2ccc(C(=O)NS(=O)(=O)N(C)C)cc21` (stereo not shown) showed an IC50 (Table 1) of 1.9 to 500 nM.

For `COc1ccc2c(c1)C=C(C(=O)N1CC34COCC3(CN(C)C4)C1)Cn1c-2c(C2CCCCC2)c2ccc(C(=O)NS(=O)(=O)N(C)C)cc21` (stereo not shown), the IC50 (Table 1) was 1.9 to 500 nM.

`COc1ccc2c(c1)C1CC1(C(=O)N1CC34COCC3(CN(C)C4)C1)Cn1c-2c(C2CCCCC2)c2ccc(C(=O)NS(=O)(=O)N(C)C)cc21` (stereo not shown) [drawing 61] was tested, and the IC50 (Table 1) was 1.9 to 500 nM.

`COc1ccc2c(c1)[C@@H]1C[C@]1(C(=O)N1CC34COCC3(CN(C)C4)C1)Cn1c-2c(C2CCCCC2)c2ccc(C(=O)NS(=O)(=O)C(C)C)cc21` (stereo partly shown) gave an IC50 (Table 1) of 1.9 to 500 nM.

`COc1ccc2c(c1)CC(C(=O)N1CC34CNCC3(CN(C)C4)C1)Cn1c-2c(C2CCCCC2)c2ccc(C(=O)NS(=O)(=O)C3CC3)cc21` (stereo not shown) was tested, and the IC50 (Table 1) was 1.9 to 500 nM.

With `COc1ccc2c(c1)[C@@H]1C[C@]1(C(=O)N1CC34COCC3(C1)N(C(C)=O)C4)Cn1c-2c(C2CCCCC2)c2ccc(C(=O)NS(=O)(=O)N(C)C)cc21` (stereo partly shown) the IC50 (Table 1) was 1.9 to 500 nM.

`COc1ccc2c(c1)CC(C(=O)N1CC34COCC3(CN(C)C4)C1)Cn1c-2c(C2CCCCC2)c2ccc(C(=O)NS(=O)(=O)C3CC3)cc21` (stereo not shown) gave an IC50 (Table 1) of 1.9 to 500 nM.

With `COc1ccc2c(c1)C=C(C(=O)N1CC34CNCC3(COC4)C1)Cn1c-2c(C2CCCCC2)c2ccc(C(=O)NS(=O)(=O)C3CC3)cc21` (stereo not shown) the IC50 (Table 1) was 1.9 to 500 nM.

Compound `COc1ccc2c(c1)C=C(C(=O)N1CC34CNCC3(COC4)C1)Cn1c-2c(C2CCCCC2)c2ccc(C(=O)NS(=O)(=O)N(C)C)cc21` (stereo not shown) has an IC50 (Table 1) of 1.9 to 500 nM.

Work on `COc1ccc2c(c1)C1CC1(C(=O)N1CC34CN(C)CC3(CN(C)C4)C1)Cn1c-2c(C2CCCCC2)c2ccc(C(=O)NS(=O)(=O)N(C)C)cc21` (stereo not shown) yielded an IC50 (Table 1) of 1.9 to 500 nM.

With `COc1ccc2c(c1)[C@@H]1C[C@]1(C(=O)N1CC34CNCC3(COC4)C1)Cn1c-2c(C2CCCCC2)c2ccc(C(=O)NS(=O)(=O)C(C)C)cc21` (stereo partly shown) the IC50 (Table 1) was 1.9 to 500 nM.

`COc1ccc2c(c1)C=C(C(=O)N1CC34COCC3(CN(C)C4)C1)Cn1c-2c(C2CCCCC2)c2ccc(C(=O)NS(=O)(=O)C3CC3)cc21` (stereo not shown) gave an IC50 (Table 1) of 1.9 to 500 nM.

`COc1ccc2c(c1)C1CC1(C(=O)N1CC34CNCC3(CN(C)C4)C1)Cn1c-2c(C2CCCCC2)c2ccc(C(=O)NS(=O)(=O)N(C)C)cc21` (stereo not shown) showed an IC50 (Table 1) of 1.9 to 500 nM.

`COc1ccc2c(c1)C1CC1(C(=O)N1CC34CNCC3(CN(C)C4)C1)Cn1c-2c(C2CCCCC2)c2ccc(C(=O)NS(=O)(=O)C3CC3)cc21` (stereo not shown) was tested, and the IC50 (Table 2) was 7.8 nM.

In the case of `COc1ccc2c(c1)C=C(C(=O)N1CC34CN(C)CC3(CN(C)C4)C1)Cn1c-2c(C2CCCCC2)c2ccc(C(=O)NS(=O)(=O)N(C)C)cc21` (stereo not shown), the IC50 (Table 1) is reported as 1.9 to 500 nM.

With `COc1ccc2c(c1)[C@@H]1C[C@]1(C(=O)N1CC34COCC3(C1)N(C(C)=O)C4)Cn1c-2c(C2CCCCC2)c2ccc(C(=O)NS(=O)(=O)C(C)C)cc21` (stereo partly shown) [drawing 110] the IC50 (Table 2) was 2.4 nM.

`COc1ccc2c(c1)C1CC1(C(=O)N1CC34CNCC3(COC4)C1)Cn1c-2c(C2CCCCC2)c2ccc(C(=O)NS(=O)(=O)N(C)C)cc21` (stereo not shown) was tested, and the IC50 (Table 1) was 1.9 to 500 nM.

`COc1ccc2c(c1)[C@@H]1C[C@]1(C(=O)N1CC34COCC3(C1)CN(C1CC1)C4)Cn1c-2c(C2CCCCC2)c2ccc(C(=O)NS(=O)(=O)C(C)C)cc21` (stereo partly shown) showed an IC50 (Table 1) of 2.5 to 500 nM.

Work on `COc1ccc2c(c1)[C@@H]1C[C@]1(C(=O)N1CC34COCC3(C1)N(C(C)=O)C4)Cn1c-2c(C2CCCCC2)c2ccc(C(=O)NS(=O)(=O)C(C)C)cc21` (stereo partly shown) [drawing 109] yielded an IC50 (Table 2) of 3.1 nM.

`COc1ccc2c(c1)CC(C(=O)N1CC34CNCC3(COC4)C1)Cn1c-2c(C2CCCCC2)c2ccc(C(=O)NS(=O)(=O)C3CC3)cc21` (stereo not shown) was tested, and the IC50 (Table 1) was 1.9 to 500 nM.

`COc1ccc2c(c1)C1CC1(C(=O)N1CC34COCC3(CN(C)C4)C1)Cn1c-2c(C2CCCCC2)c2ccc(C(=O)NS(=O)(=O)N(C)C)cc21` (stereo not shown) [drawing 106] was tested, and the IC50 (Table 2) was 8.79 nM.

With `COc1ccc2c(c1)C1CC1(C(=O)N1CC34COCC3(CN(C(C)=O)C4)C1)Cn1c-2c(C2CCCCC2)c2ccc(C(=O)NS(=O)(=O)CC(C)C)cc21` (stereo not shown) the IC50 (Table 1) was 1.9 to 500 nM.

`COc1ccc2c(c1)[C@@H]1C[C@]1(C(=O)N1CC34CNCC3(CN(C)C4)C1)Cn1c-2c(C2CCCCC2)c2ccc(C(=O)NS(=O)(=O)C(C)C)cc21` (stereo partly shown) gave an IC50 (Table 1) of 1.9 to 500 nM.

Work on `COc1ccc2c(c1)[C@@H]1C[C@]1(C(=O)N1CC34COCC3(C1)N(C(C)=O)C4)Cn1c-2c(C2CCCCC2)c2ccc(C(=O)NS(=O)(=O)C(C)C)cc21` (stereo partly shown) [drawing 73] yielded an IC50 (Table 1) of 1.9 to 500 nM.

Source: patent US8143244B2, “Cyclopropyl fused indolobenzazepine HCV NS5B inhibitors” (Bristol-Myers Squibb Company, priority 2009, dated 2012)
